Test results reported in patent publication US20240390434A1, “PROBIOTIC ENHANCERS AND USES THEREOF” (Blis Technologies Limited, priority 2021, published 2024).
Read-outs that look alike come from different tables or passages of the source.

Columns and labels:
salB = assay type: cell-based, S. salivarius K12; conditions: K12
Description: Method: CABCa agar plates were prepared either with or without 2.5% w/w raffinose, 0.5% w/w galactose, combined 2.5% w/w raffinose and 0.5% w/w galactose, 0.5% w/w glucose or 2.5% w/w glucose by the addition of 0.5% (w/v) calcium carbonate to solid CAB agar in bottles and then melted by autoclaving at 110° C. for 10 mins. Once cooled, filter sterilised solutions of the saccharides or distilled water were added and mixed and then 20 ml pipetted into petri dishes.
A S. salivarius K12 raw ingredient suspension was prepared in PBS containing approx. 1×10^8cfu/ml. 100p of this suspension was spread evenly onto control and test agar plates. Plates were incubated at 37° C. with 5% CO2 for approx, 19 hrs.
Bacterial growth from each plate was collected using a sterile cotton swab and resuspended into 1 ml PBS in a screw capped tube. The bacterial cells were then pelleted by centrifugation at 13,000 rpm for 1 minute at 4° C. The supernatant was removed, and the cell pellet was resuspended in 1 ml of TRIzol reagent. The bacterial cell suspension was transferred into a 2 ml screw-capped tube containing 0.1 mm Zirconia/silicon beads. […]
The cDNA samples from K12 raw ingredient grown on the CABCa control plates and CABCa supplemented with the various saccharides were then analysed by qPCR for the levels of gene expression of the following genes: salA, salB, salQ and ureC. […]

L. lactis T-21 = assay: Dose response deferred antagonism assay, producer M18; assay type: cell-based
[1] = tested on: bacterial indicator strains; assay: Split plate inhibitory activity of K12 in infant formula or whole milk powder (overall); assay type: cell-based; conditions: galactose 0.5% w/w or raffinose 2.5% w/w added
Description: The following method was used to measure the inhibitory effect of S. salivarius K12 in the context of the powder formulations. Exactly 40 mL of 50° C. molten CAB agar containing 0.5% calcium carbonate (CABCa) was poured in agar plates (120×120 mm). Once the agar was set upon cooling, it was split in the middle and half of the agar gel was removed. The other half was left on the plate as Blank agar marked as side “A”. Approximately, 0.8 g of each combination (DDJ powder with (1) galactose, (2) raffinose or (3) combination of raffinose and galactose) was mixed with 1 mL of sterile distilled water and vortexed to produce a homogeneous suspension. 100 μl of the suspension was reserved for spreading on the surface of agar (producer side B). The remaining suspension was then mixed with 20 mL of molten CABCa agar and the mixture was poured into the empty half of the agar plate to form producer side “B”. The 100 μL of the reserved suspension was spread over the surface on side B and the plates were incubated for 18 h, 37° C., 5% CO2 in air. […] The pH of the producer side was measured and adjusted to 6.5-7.5 by soaking into the agar a solution of 0.5 M sodium carbonate pH 11. […] The zone of inhibition of each indicator strain was measured (in mm) using a ruler. Results were also read using a macroscope to establish presence of small colonies or complete inhibition zones. […]

[2] = tested on: S. pyogenes strains or other pathogens; assay: Inhibitory activity of K12 grown in M17 broth with saccharides; assay type: cell-based; conditions: saccharide 0.83% or 2.5% w/v, vs control
[3] = tested on: indicator bacterial test strains; assay: Inhibitory activity of freeze dried raw ingredient powder, K12; assay type: cell-based; conditions: galactose 0.5% w/w; raffinose 2.5% w/w; or combination
Description: (§1) Method: The amount of raffinose and galactose used was calculated based on the volume of the area of the producer streak, (which was calculated to be 4.25 g) to allow for the absorption of the saccharides into the agar. Based on this, amount of 0.021 g (i.e. 0.5% w/w galactose of 4.25 g agar volume) of galactose, 0.11 g (i.e 2.5% w/w) of raffinose and the combination of galactose (0.5% w/w) and raffinose (2.5% w/w) (0.13 g total) were weighed into sterile containers. K12 and/or M18 raw ingredient were suspended and diluted with sterile distilled water to a concentration of 1-2×10^6 cfu/100 μl. Then, […] of K12 only, M18 only, and K12±M18 suspensions were spread as a 1 cm streak down the middle of a CABCa agar plate using a sterile spreader. […] Bacterial growth was then removed using a microscope slide, and the pH of the agar in the producer streak area was measured and adjusted to pH 6.5-7.5 using 0.5M sodium carbonate (pH 11) before surface sterilizing the plates with chloroform vapour. […] Zones of inhibition for each test organism were then measured in mm using a ruler. The amount of raffinose and galactose to be used was calculated based on the volume of the area of the producer streak, (which was calculated to be 4.25 g) to allow for absorption into the agar.

[4] = tested on: indicator bacterial test strains; assay: Inhibitory activity of freeze dried raw ingredient powder, M18; assay type: cell-based; conditions: galactose 0.5% w/w; raffinose 2.5% w/w; or combination
Description: as §1

[5] = tested on: halitosis-causing gram-negative bacteria F. nucleatum, P. gingivalis and P. intermedia; assay: Deferred antagonism assay (anaerobic), producer M18; assay type: cell-based; conditions: 2.5% w/w raffinose; or combination with 0.5% w/w galactose
Description: Method: CABCa agar plates were prepared with or without 2.5% w/w raffinose, 0.5% w/w galactose or a combination of both saccharides by the addition of 0.5% (w/v) calcium carbonate to solid CAB agar in bottles and then melted by autoclaving at 110° C. for 10 mins. Once cooled, filter sterilised solutions of the saccharides or distilled water were added and mixed and then 20 ml pipetted into petri dishes.
A deferred antagonism assay was conducted using K12 or M18 raw ingredient suspended in THB. This was spread as a 1.2 cm streak containing approximately 1-2×10^6 cfu down the middle of a CABCa control or CABCa galactose supplemented test plate. After 18 hrs growth at 37° C., 5% CO2 in air, bacterial growth was removed, and the pH of the agar in the initial streak was measured and adjusted to a pH of 6.5-7.5 using 0.5M sodium carbonate pH11 before sterilizing the agar surface using chloroform vapor. Bacterial test strains were suspended in THB and swabbed across the plates perpendicular to the initial streak and then the plates were incubated at 37° C. in an anaerobic jar containing an anaeroGen sachet for 4 days. Zones of inhibition for each test strain were then measured (mm).

H. influenzae TW5 = assay: Dose response deferred antagonism assay, producer M18; assay type: cell-based; conditions: 1.5% (w/v) raffinose

Row | Structure (SMILES) | increase in gene expression of salB relative to no sugar control (salB; 0.5% w/w sugar in CABCa agar) | L. lactis zone of inhibition (L. lactis T-21; 1.5% (w/v) galactose, largest) | inhibitory activity of K12 in infant formula compared to the control [1] | inhibitory activity of K12 grown in presence of saccharide [2] | inhibitory activity of freeze-dried raw ingredient powder of K12 [3] | inhibitory activity of freeze-dried raw ingredient powder of M18 [4] | antimicrobial activity of M18 against halitosis-causing bacteria [5] | increase in gene expression of salB relative to no sugar control (salB; 2.5% w/w sugar in CABCa agar) | H. influenzae TW5 ZOI size (H. influenzae TW5) | L. lactis ZOI size (L. lactis T-21; 0.1% (w/v) raffinose)
1 | O=C[C@H](O)[C@@H](O)[C@@H](O)[C@H](O)CO [Galactose, D-galactose] | 641 fold | 9 mm | reduction in inhibitory activity | greater inhibitory activity | induced the inhibitory activity | induced the inhibitory activity | – | – | – | –
2 | OC[C@H]1O[C@H](OC[C@H]2O[C@H](O[C@]3(CO)O[C@H](CO)[C@@H](O)[C@@H]3O)[C@H](O)[C@@H](O)[C@@H]2O)[C@H](O)[C@@H](O)[C@H]1O [Raffinose, D-(+) Raffinose pentahydrate] | – | – | reduction in inhibitory activity | greater inhibitory activity | induced the inhibitory activity | induced the inhibitory activity | inhibit some strains | 241 fold | 26 mm | 20 mm
